Test system: male SD rats
Test: Measurement of antianxiety activity using the elevated plus-maze
Format: in vivo, rat
Details: 3 and 10 mg/kg, 30 minutes after administration, 5 minutes period
Experimental: Two arms (open and closed) of equal width and length (50 cm×10 cm), which crossed at a right angle to form a plus maze, were elevated to a height 50 cm above the ground level. […] Lighting on both ends of the open arm was maintained at constant illumination. Thirty minutes after administration of various doses of test-compounds (5 mL/kg), male SD rats were placed in the center of the plus maze. The time spent(s) in the open arms and the number of entries into the respective arms were measured within a 5 minutes period. The investigation personnel for measuring the indexes positioned at a fixed location during the course of the experiment.

CCC(CC)Nc1c2c(nc3c(-c4ccc(OC)cc4Cl)c(C)nn13)CCC2.Cl [Example 2(78), 8-(3-pentylamino)-2-methyl-3-(2-chloro-4-methoxyphenyl)-6,7-dihydro-5H-cyclopenta[d]pyrazolo[1,5-a]pyrimidine hydrochloride]
time spent in the open arms (FIG. 1): extend significantly
number of entries into the open arms (FIG. 2): increased significantly
